In patent US8084602B2, “Porphyrin derivatives and their use in photodynamic therapy” (Destiny Pharma Limited, priority 2002, dated 2011):
Like-named read-outs stand apart in the source and are kept apart here.

Tests used:
Type in all cases: cell-based
[1] = test system: Staphylococcus aureus (methicillin-resistant strain ATTC BAA-44); assay: Initial screening: growth inhibition after white light illumination; conditions: Staphylococcus aureus
Experimental: (§1) The toxic effects of exemplary compounds of the invention against two bacterial strains, the Gram negative bacterium Escherichia coli (strain ATCC 25922) and the Gram positive bacterium Staphylococcus aureus (methicillin-resistant strain ATTC BAA-44), were evaluated by measuring the extent of growth inhibition (bacteriostatic effect) and growth […] (cytocidal effect) in the dark and upon light exposure. Initial compound screening was undertaken using white light [390-740 nm] (150 mW/cm^2) for various timepoints of a concentration of 3 μM (see Table 1). Further experiments were undertaken on those compounds identified from this initial screen using a light source emitting light at a wavelength between 417-420 nm at 15.2 mW/cm^2, 13.68 J/cm^2 (Waldmann Eclairage SA, France) (see Table 20.
(§2) The following protocol was used for the initial screening of the exemplary compounds (Table 1) (see Reddi et al., 2002, Photochem. Photobiol. 75(5):462-470): • (i) E. coli and S. aureus cells were grown overnight on brain heart infusion agar, resuspended in brain heart infusion broth, harvested by centrifugation (3000 g for 15 minutes) and washed once with phosphate buffered saline (PBS) at pH 7.4 consisting 2.7 mM KCl and 0.14 M NaCl. • (ii) The cells were then resuspended in PBS to an optical density at 650 nm of 0.7, which corresponds to a density of 10^8 to 10^9 cells/ml. • (iii) Next, the cells were incubated in PBS in the dark for 5 minutes with 3.0 μM of the compound to be tested. • (iv) After dark incubation, cells were illuminated with white light (wavelength: 390 to 740 nm) (150 mW/cm^2) for up to 30 minutes. During illumination, the cells were kept at 37° C. and magnetically stirred. • (v) Finally, treated and untreated (control) cells were diluted in brain heart infusion broth and maintained at […] while the absorbance of the suspension at 650 nm was monitored at predetermined time points for determining growth curves.
(§3) The percent of growth inhibition in the treated cells was calculated by the following equation: [1−(Ax−A0)/(Ac−A0)]×100 where Ax Ac are the absorbances measured after 3 hours incubation, for the treated and control cell suspensions, respectively, and A0 represents the initial absorbance.

[2] = test system: Escherichia coli (strain ATCC 25922); assay: as above; conditions: Escherichia coli
Experimental: as §1, §2, §3

[3] = test system: Staphylococcus aureus BAA-44; assay: Emergence of bacterial resistance to PDT; conditions: S. aureus ATCC BAA-44; ten subsequent photodynamic treatments
Experimental: The potential build up of resistance of the bacterial cells to the exemplary compounds of the invention was tested in the multi-drug resistant (including methicillin) gram positive bacterium Staphylococcus aureus BAA-44, using Compound 10 as the photodynamic agent. The survival of S. aureus BAA-44 after the second treatment was again compared to the survival of S. aureus BAA-44 cells that had not been treated with PDT. […] In an additional experiment, clones which had been exposed nine times to PDT treatment by the above methodology were treated for a tenth time and the results compared to the cell kill observed in a parallel experiment where naïve cultures (i.e. which had not been exposed to PDT) were subjected to PDT treatment under exactly the same conditions.
The results obtained from comparing cell kill contained from cultures that had been exposed to 10 consecutive PDT treatments with neïve cultures (i.e. which had not been exposed to PDT) are shown in FIG. 7. The survival was expressed as log N0/N, where N0 and N represent the number of CFU/ml of the untreated and treated cell suspensions.

[4] = test system: Staphylococcus epidermidis ATCC 700565; assay: Range of antimicrobial activity (CFU protocol)
Experimental: (§4) For the further investigation of the exemplary compounds (Table 2), the following protocol was adopted: • (i) Bacteria (S. aureus BAA-44 and E. coli 25922) were grown in brain heart infusion (BHI) broth until they reached the stationary phase of growth. • (ii) The cells were harvested by centrifugation (3000 g for 15 min) with a table centrifuge, washed with 10 mM PBS at pH 7.4 containing 2.7 mM KCl and 0.14 M NaCl and suspended in PBS at an optical density of 0.7 at 650 nm corresponding to 10^8-10^9 cells/ml. • (iii) The bacteria, at the desired cell density (˜10^8 cells/ml) were incubated for 5 min in the dark with various concentrations of the exemplary compounds. • (iv) At the end of the incubation period the cells were washed three times with PBS, suspended in PBS, transferred into a 96-well microtitre plate (200 μl/well) and illuminated for 15 min with the Waldmann light source (15.2 mW/cm^2; 13.7 J/cm^2). The cells were illuminated from the bottom of the plate laying it on the glass cover of the lamp. • (v) After illumination, cell survival was determined by plating serially diluted aliquots of treated and untreated (i.e. no exemplary compound or light present) cells onto brain heart agar (BHA) and counting the number of colonies after 18-24 h incubation at 37° C.
(§5) The antibacterial activity of Compound 10 was tested against a range of bacterial strains: • S. aureus ATCC BAA-44 (a methicillin resistant S. aureus) • Ps. aeruginosa ATCC 25668 • S. epidermidis ATCC 700565 • Streptococcus pyogenes ATCC 49117 • E. coli ATCC 25922

[5] = test system: Streptococcus pyogenes ATCC 49117; assay: Range of antimicrobial activity (CFU protocol)
Experimental: as §4, §5

[6] = test system: Pseudomonas aeruginosa ATCC 25668; assay: Range of antimicrobial activity (CFU protocol)
Experimental: as §4, §5

SMILES	inhibition at 3 µM ([1]; BAA44, 5 min, read-out: Growth inhibition (%), S. aureus, 5 min incubation, illumination time 5 min) [%]	inhibition at 3 µM ([1]; BAA44, read-out: Growth inhibition (%), S. aureus, 5 min incubation, illumination time 0 min) [%]	inhibition at 3 µM ([1]; BAA44, read-out: Growth inhibition (%), S. aureus, 5 min incubation, illumination time 1 min) [%]	inhibition at 3 µM ([1]; BAA44, read-out: Growth inhibition (%), S. aureus, 5 min incubation, illumination time 10 min) [%]	inhibition at 3 µM ([1]; BAA44, read-out: Growth inhibition (%), S. aureus, 5 min incubation, illumination time 15 min) [%]	inhibition at 3 µM ([1]; BAA44, read-out: Growth inhibition (%), S. aureus, 5 min incubation, illumination time 30 min) [%]	inhibition at 3 µM ([2]; ATCC25922, 5 min, read-out: Growth inhibition (%), E. coli, 5 min incubation, illumination time 5 min) [%]	inhibition at 3 µM ([2]; ATCC25922, read-out: Growth inhibition (%), E. coli, 5 min incubation, illumination time 0 min) [%]	inhibition at 3 µM ([2]; ATCC25922, read-out: Growth inhibition (%), E. coli, 5 min incubation, illumination time 1 min) [%]	inhibition at 3 µM ([2]; ATCC25922, read-out: Growth inhibition (%), E. coli, 5 min incubation, illumination time 10 min) [%]	inhibition at 3 µM ([2]; ATCC25922, read-out: Growth inhibition (%), E. coli, 5 min incubation, illumination time 15 min) [%]	inhibition at 3 µM ([2]; ATCC25922, read-out: Growth inhibition (%), E. coli, 5 min incubation, illumination time 30 min) [%]	development of resistance [3]	Concentration of Compound 10 required to obtain a 3 log reduction in cells (μM) [4] [μM]	Concentration of Compound 10 required to obtain a 3 log reduction in cells (μM) [5] [μM]	Concentration of Compound 10 required to obtain a 3 log reduction in cells (μM) [6] [μM]
CN(C)CCC[N+](C)(C)CCCOc1ccc(-c2c3nc(cc4ccc([nH]4)c(-c4ccc(OCCC[N+](C)(C)CCCN(C)C)cc4)c4nc(cc5ccc2[nH]5)C=C4)C=C3)cc1.[Cl-].[Cl-] [Compound 8, 5,15-bis-(4-{3-[(3-Dimethylamino-propyl)-dimethylammonio]-propyloxy}-phenyl)-porphyrin dichloride]	100	80	99	100	100	100	100	23	69	100	100	100				
C[N+](C)(C)CCCOc1ccc(-c2c3nc(cc4ccc([nH]4)c(-c4ccc(OCCC[N+](C)(C)C)cc4)c4nc(cc5ccc2[nH]5)C=C4)C=C3)cc1.[Cl-].[Cl-] [Compound 10, 5,15-bis-[4-(3-Trimethylammonio-propyloxy)-phenyl]-porphyrin dichloride]													no appreciable development of resistance	0.0025	0.01	5.0
